Measurements reported in patent publication US20220380357A1, “TETRAHYDROISOQUINOLINE COMPOUNDS” (ALLINKY BIOPHARMA, priority 2019, published 2022).

Tests used:
[1] = tested on: A549. Lung carcinoma cell line bearing KRas^G12S oncogenic mutation; experiment: Antiproliferative MTS assay, A549 cells; format: cell-based; settings: Homo sapiens, A549, 72 h, compounds 1-23 and 47-52 median of experiments, 24-46 estimations and/or preliminary results, read-out: IC50 values: cell proliferation inhibition, A549
Description: Cell line #1: A549. Lung carcinoma cell line bearing KRas^G12S oncogenic mutation
(§1) Cell lines were cultured in DMEM or RPMI-1640 supplemented with FBS 10%. In order to assess the antiproliferative effect of compounds, cells were seeded at a density of 1.8×10^3, 6.2×10^3, 7.8×10^3, 21×10^3 and 2×10^3 cells/cm^2, respectively, in tissue culture microplates and were incubated in humidified atmosphere at 5% CO2. 24 h later, compounds dissolved in DMSO 100% were added for different final concentrations ranging between 0.1 and 50 μM for a final DMSO concentration of 0.5% and the plates were incubated for another 72 h. After incubation, proliferation was quantified using CellTiter 96® Aqueous Non-Radioactive Cell Proliferation Assay-MTS (Promega #G5421) following manufacturer instructions. Amount of 490 nm absorbance is directly proportional to the number of living cells. Absorbance was recorded with a BMG Fluostar Optima Microplate Reader and normalized to control with vehicle.

[2] = tested on: RPMI. myeloma cell line bearing KRas^G12A oncogenic mutation; experiment: Antiproliferative MTS assay, RPMI cells; format: cell-based; settings: 72 h, compounds 1-23 and 47-52 median of experiments, 24-46 estimations and/or preliminary results, read-out: IC50 values: cell proliferation inhibition, RPMI
Description: Cell line #4: RPMI. myeloma cell line bearing KRas^G12A oncogenic mutation
as §1

[3] = tested on: PANC-1. epithelioid carcinoma of the pancreas cell line bearing KRas^G12D oncogenic mutation; experiment: Antiproliferative MTS assay, PANC-1 cells; format: cell-based; settings: Homo sapiens, PANC-1, 72 h, compounds 1-23 and 47-52 median of experiments, 24-46 estimations and/or preliminary results, read-out: IC50 values: cell proliferation inhibition, Panc-1
Description: Cell line #3: PANC-1. epithelioid carcinoma of the pancreas cell line bearing KRas^G12D oncogenic mutation
as §1

[4] = tested on: H358. non-small cell lung cancer line bearing KRas^G12C oncogenic mutation; experiment: Antiproliferative MTS assay, H358 cells; format: cell-based; settings: Homo sapiens, NCI-H358, 72 h, compounds 1-23, 47-52 and Reference Example 1 median of experiments, 24-46 estimations and/or preliminary results, read-out: IC50 values: cell proliferation inhibition, H358
Description: Cell line #2: H358. non-small cell lung cancer line bearing KRas^G12C oncogenic mutation
as §1

[5] = tested on: NIH-H358 Cell Line; experiment: 3D CellTiter-Glo cell viability assay; format: cell-based; settings: 168 h, NIH-H358 cells in 0.65% methylcellulose, 7 days' compound treatment
Description: Example 5: Efficacy Testing in 3D Viability Assay for NIH-H358 Cell Line
The protocol to perform 3D CellTiter-Glo™ cell viability assay is as follows:
Day—1: Cell plating • Adjust cell concentrations to 1×10^5 cells/ml with respective medium. (Cell concentration is adjusted according to data base or density optimization assay). Mix 3.5 mL of cell suspension 6.5 mL of 1% methylcellulose. Mix and wait for bubbles to disperse before pipetting. This step yields 10 ml of cell suspension in 0.65% methylcellulose solution. Add 99.5 μL cell suspensions to 96-well plates according to plate map with final cell density. • Two duplicate plates will be set up. One is for day 0 reading (T0) and the other will be cultured in incubator for reading at the end point. • Incubate the plates overnight in humidified incubator at 37° C. with 5% CO2.
Day 0: T0 plate reading and compound treatment • Take T0 plate, add 0.5 μL culture medium to each well for T0 reading. • Add 100 μl CellTiter-Glo® Reagent to each well. • Mix contents for 2 minutes on an orbital shaker to facilitate cell lysis. • Allow the plate to incubate at room temperature for 10 minutes to stabilize luminescent signal. • Record luminescence using EnVision Multi Label Reader. • Dilute the test articles at the concentration indicated at Test Articles Dilution. Add 0.5 μL of each 200× compound working solutions according to plate inoculation map.
Day 7: Plate reading of 7 days' compound treatment • Add 100 μL CellTiter-Glo® Reagent to each well. • Mix contents for 2 minutes on an orbital shaker to facilitate cell lysis. • Allow the plate to incubate at room temperature for 10 minutes to stabilize luminescent signal. • Record luminescence using EnVision Multi Label Reader.

[6] = Body weight and tolerability in xenograft studies; format: in vivo; settings: 20 mg/kg BID peroral, mice bearing NCI-H358 xenograft
Excerpt: (§2) Evaluation of the efficacy of compounds 6, 11 and 13 in the treatment of subcutaneous NCI-H358 Human Lung Cancer Model in NCr nude mice.
(§3) The treatment with compound 6 started when the tumors size reached 170 mm^3 (study 1). This value was 190 mm^3 in the case of compounds 11 and 13 (study 2).
The results of the body weight changes in the tumor bearing mice are shown in FIG. 1 (p.o. is peroral; i.p. is intraperitoneal). The body weight of the animals at the end of the treatment with the three compounds was only slightly below the body weight of the respective vehicle control groups.

[7] = tested on: subcutaneous NCI-H358 Human Lung Cancer Model; experiment: Efficacy in xenograft studies (tumor growth inhibition); format: in vivo, NCr nude mice; settings: for Oral anti-tumor activity: 20 mg/kg BID peroral, subcutaneous NCI-H358 xenograft; for TGI (tumor growth inhibition): NCI-H358 xenograft, NCr nude mice
Excerpt: as §2, §3
Studies endpoints: The major endpoints of the study included the following:
Tumor growth inhibition (TGI): TGI(%) is an indication of antitumor effectiveness, and it is expressed as: TGI (%)=100×(1−T/C). T and C were the mean tumor volume of the treated and control groups, respectively, on a given day.

[8] = Study 2: 20 mg/kg peroral BID × 27 days

Structure (SMILES) | IC50 [1] [µM] | IC50 [2] [µM] | IC50 [3] [µM] | IC50 [4] [µM] | IC50 [5] [µM] | Tolerability / safety of dose [6] | Oral anti-tumor activity [7] | TGI (tumor growth inhibition) [7, 8] [%] | TGI (tumor growth inhibition) ([7]; Study 1: 20 mg/kg peroral BID × 29 days) [%]
COc1ccc(CCOc2cc3c(cc2OC)CCN(C(=O)NCc2cocn2)C3c2ccc(C)cc2C)cc1O (stereo not drawn) [Compound 2] | 1 | 0.2 | 0.3 | 0.4 | 0.299 | – | – | – | –
CCNC(=O)N1CCc2cc(OC)c(OCCc3ccc(OC)c(N)c3)cc2C1c1ccc(OC)cc1C (stereo not drawn) [Compound 11] | 0.8 | 0.1 | 0.2 | 0.2 | 0.413 | tolerate 20 mg/kg BID and safe | significant oral anti-tumor activities | 48.22 | –
COc1ccc(CCOc2cc3c(cc2OC)CCN(C(=O)N[C@@H](C)C(F)(F)F)C3c2ccc(C)cc2C)cc1N (stereo partly drawn) [Compound 48] | > 1 | 0.04 | 0.5 | 0.1 | 0.371 | – | – | – | –
CCNC(=O)N1CCc2cc(OC)c(OCCc3ccc(OC)c(N)c3)cc2C1c1ccc(N(C)C)cc1C (stereo not drawn) [Compound 52] | > 2 | 0.2 | 1 | 1 | > 1 | – | – | – | –
CCNC(=O)N1CCc2cc(OC)c(OCCc3ccc(OC)c(N)c3)cc2C1c1ccc(C(F)(F)F)cc1C (stereo not drawn) [Compound 10] | 0.9 | 0.1 | 0.2 | 0.3 | 0.36 | – | – | – | –
COc1ccc(CCOc2cc3c(cc2OC)CCN(C(=O)N[C@H](C)C(F)(F)F)C3c2ccc(C)cc2C)cc1N (stereo partly drawn) [Compound 47] | > 2 | 0.4 | > 1 | 0.6 | 0.963 | – | – | – | –
COc1cc2c(cc1OCCc1cc(O)cc(Cl)c1)C(c1ccc(C)cc1C)N(C(=O)NCc1cocn1)CC2 (stereo not drawn) [Compound 3] | > 2 | > 2 | > 2 | > 2 | > 1 | – | – | – | –
CCNC(=O)N1CCc2cc(OC)c(OCCc3ccc(F)c(N)c3)cc2C1c1ccc(C)cc1C (stereo not drawn) [Compound 7] | 0.6 | 0.6 | 0.8 | 0.9 | 0.531 | – | – | – | –
COc1ccc(CCOc2cc3c(cc2OC)CCN(C(=O)NCc2cocn2)C3c2ccc(C)cc2C)cc1N (stereo not drawn) [Compound 4] | 0.9 | 0.3 | 0.4 | 0.2 | 0.556 | – | – | – | –
COc1cc(O)cc(CCOc2cc3c(cc2OC)CCN(C(=O)NCc2cocn2)C3c2ccc(C)cc2C)c1 (stereo not drawn) [Compound 1] | 2 | 1.5 | 2 | 1.5 | > 1 | – | – | – | –
CCNC(=O)N1CCc2cc(OC)c(OCCc3ccc(OC)c([N+](=O)[O-])c3)cc2C1c1ccc(C)cc1C (stereo not drawn) [Compound 8] | 0.9 | 0.2 | 0.2 | 0.2 | > 3 | – | – | – | –
CCNC(=O)N1CCc2cc(OC)c(OCCc3ccc(OC)c(N)c3)cc2C1c1ccc(C)cc1C (stereo not drawn) [Compound 6, 7-(3-amino-4-methoxyphenethoxy)-1-(2,4-dimethylphenyl)-N-ethyl-6-methoxy-3,4-dihydroisoquinoline-2(1H)-carboxamide] | 0.6 | 0.1 | 0.2 | 0.2 | 0.125 | tolerate 20 mg/kg BID and safe | significant oral anti-tumor activities | – | 27.09
CCNC(=O)N1CCc2cc(OC)c(OCCc3ccc(N)c(OC)c3)cc2C1c1ccc(C)cc1C (stereo not drawn) [Compound 9, 7-(4-amino-3-methoxyphenethoxy)-1-(2,4-dimethylphenyl)-N-ethyl-6-methoxy-3,4-dihydroisoquinoline-2(1H)-carboxamide] | 1 | 0.2 | 0.3 | 0.4 | 0.645 | – | – | – | –
CCNC(=O)N1CCc2cc(OC)c(OCCc3ccc(OC)c(N)c3)cc2C1c1ccc(Cl)cc1C (stereo not drawn) [Compound 13] | 1 | 0.1 | 0.3 | 0.3 | 0.147 | tolerate 20 mg/kg BID and safe | significant oral anti-tumor activities | 26.99 | –
CCNC(=O)N1CCc2cc(OC)c(OCCc3ccc(OC)c(O)c3)cc2C1c1ccc(C)cc1C (stereo not drawn) [Compound 5, 1-(2,4-dimethylphenyl)-N-ethyl-7-(3-hydroxy-4-methoxyphenethoxy)-6-methoxy-3,4-dihydroisoquinoline-2(1H)-carboxamide] | 0.7 | 0.1 | 0.2 | 0.1 | 0.533 | – | – | – | –
COc1ccc(CCOc2cc3c(cc2OC)CCN(C(=O)NCc2cocn2)C3c2ccc(C(F)(F)F)cc2C)cc1N (stereo not drawn) [Compound 15] | 1 | 0.1 | 0.3 | 0.3 | – | – | – | – | –
CCNC(=O)N1CCc2cc(OC)c(OCCc3ccc(OC)c(N)c3)cc2C1c1ccc(Br)cc1C (stereo not drawn) [Compound 51] | 0.2 | > 1 | 0.07 | 0.15 | 0.178 | – | – | – | –
COc1ccc(C2c3cc(OCCc4ccc(OC)c(N)c4)c(OC)cc3CCN2C(=O)N[C@@H](C)C(F)(F)F)c(C)c1 (stereo partly drawn) [Compound 50] | > 2 | 0.15 | 0.2 | 0.5 | 0.767 | – | – | – | –
COc1ccc(CCOc2cc3c(cc2OC)CCN(C(=O)NCC(F)(F)F)C3c2ccc(C(F)(F)F)cc2C)cc1N (stereo not drawn) [Compound 25] | > 2 | 0.3 | 0.5 | 0.6 | – | – | – | – | –
